Measurements published in the NIST ThermoML archive (doi:10.1021/je8003468).

Conditions: Ring tensiometer

CO [methanol]
Conditions | surface tension liquid-gas [mN/m]
279.11 K | 23.87
282.59 K | 23.63
288.3 K | 23.14
293.37 K | 22.73
296.97 K | 22.43
301.54 K | 21.99
307.31 K | 21.43
311.76 K | 21
317.66 K | 20.43
322.9 K | 19.83
326.56 K | 19.42
330.01 K | 19.09
333.81 K | 18.63
